Like-named read-outs stand apart in the source and are kept apart here. Marks after values point to notes of the source that are not given here.
How the values were obtained:
[1] = Active ingredient release from 1 mg capsule / 1 mg tablet; type: physicochemical; details: 0.3% SDS in water
Protocol: The release values were compared in a test medium, which comprises 0.3% SDS in water, with paddle stirring, 100 rpm.
Active Ingredient Release:
Active ingredient release measured in 1000 mL water with 0.3% sodium dodecyl sulfate, 100 rpm
Content Determination by HPLC with external calibration
(§1) Column: LiChrosphere 5μ RP-18 encapped, 150×3 mm
(§2) Eluent: acetonitrile/water=45/55

[2] = Description: Content Determination according to USP/Ph. Eur. for individual capsules after elution through HPLC with external calibration
as §1, §2

[3] = Particle size distribution (Sympatec HELOS, dry dispersion); type: physicochemical
Excerpt: Particle Size Distribution:
Sympatec HELOS (H0445), dry dispersion system (RODOS), pressure 2 bar

[4] = 1 mg capsule, microcrystals X50 3.4/X100 25 μm
[5] = 1 mg capsule, microcrystals X50 5.2/X100 30 μm
[6] = 1 mg capsule, microcrystals X50 6.6/X100 43 μm
[7] = 1 mg capsule, microcrystals X50 8.7/X100 43 μm
[8] = 1 mg capsule, microcrystals X50 14.1/X100 87 μm
[9] = 1 mg tablet, microcrystals X50 10.6/X100 73 μm
[10] = Example 1, spray-dried microcrystals
[11] = Example 2, primary particle size
[12] = Example 3, primary particle size
[13] = after drying on filter (from ethyl acetate suspension)
[14] = after spray-drying (from ethanol/water suspension)
[15] = suspension in ethanol/water (90/10) with 10% by weight microcrystalline J956, before drying
[16] = suspension in ethyl acetate with 14% by weight microcrystalline J956, before drying
[17] = Example 7, primary particle size
[18] = Example 6, primary particle size
[19] = Example 4, primary particle size

CCNC(=O)ON=Cc1ccc(C2CC3(C)C(CCC3(COC)OC)C3CCC4=CC(=O)CCC4=C23)cc1 (stereo not drawn) [J956, 11β-{4-[(ethylaminocarbonyl)oximinomethyl]phenyl}-17β-methoxy-17α-methoxymethyl-estra-4,9-dien-3-one]
RELEASE in % ([1]; 1 mg capsule, microcrystals X50 3.4/X100 25 μm, 0 min, paddle 100 rpm): 0% | RELEASE in % ([1]; 1 mg capsule, microcrystals X50 3.4/X100 25 μm, 10 min, paddle 100 rpm): 90.7% | RELEASE in % ([1]; 1 mg capsule, microcrystals X50 3.4/X100 25 μm, 20 min, paddle 100 rpm): 97.3% | RELEASE in % ([1]; 1 mg capsule, microcrystals X50 3.4/X100 25 μm, 30 min, paddle 100 rpm): 98.1% | RELEASE in % ([1]; 1 mg capsule, microcrystals X50 3.4/X100 25 μm, 45 min, paddle 100 rpm): 99.9% | RELEASE in % ([1]; 1 mg capsule, microcrystals X50 5.2/X100 30 μm, 0 min, paddle 100 rpm): 0% | RELEASE in % ([1]; 1 mg capsule, microcrystals X50 5.2/X100 30 μm, 10 min, paddle 100 rpm): 89.8% | RELEASE in % ([1]; 1 mg capsule, microcrystals X50 5.2/X100 30 μm, 20 min, paddle 100 rpm): 93.5% | RELEASE in % ([1]; 1 mg capsule, microcrystals X50 5.2/X100 30 μm, 30 min, paddle 100 rpm): 93.4% | RELEASE in % ([1]; 1 mg capsule, microcrystals X50 5.2/X100 30 μm, 45 min, paddle 100 rpm): 95.6% | RELEASE in % ([1]; 1 mg capsule, microcrystals X50 6.6/X100 43 μm, 0 min, paddle 100 rpm): 0% | RELEASE in % ([1]; 1 mg capsule, microcrystals X50 6.6/X100 43 μm, 10 min, paddle 100 rpm): 93.2% | RELEASE in % ([1]; 1 mg capsule, microcrystals X50 6.6/X100 43 μm, 20 min, paddle 100 rpm): 95.9% | RELEASE in % ([1]; 1 mg capsule, microcrystals X50 6.6/X100 43 μm, 30 min, paddle 100 rpm): 96.7% | RELEASE in % ([1]; 1 mg capsule, microcrystals X50 6.6/X100 43 μm, 45 min, paddle 100 rpm): 96.8% | RELEASE in % ([1]; 1 mg capsule, microcrystals X50 8.7/X100 43 μm, 0 min, paddle 100 rpm): 0% | RELEASE in % ([1]; 1 mg capsule, microcrystals X50 8.7/X100 43 μm, 10 min, paddle 100 rpm): 93.5% | RELEASE in % ([1]; 1 mg capsule, microcrystals X50 8.7/X100 43 μm, 20 min, paddle 100 rpm): 96.7% | RELEASE in % ([1]; 1 mg capsule, microcrystals X50 8.7/X100 43 μm, 30 min, paddle 100 rpm): 98.5% | RELEASE in % ([1]; 1 mg capsule, microcrystals X50 8.7/X100 43 μm, 45 min, paddle 100 rpm): 99.7% | RELEASE in % ([1]; 1 mg capsule, microcrystals X50 14.1/X100 87 μm, 0 min, paddle 100 rpm): 0% | RELEASE in % ([1]; 1 mg capsule, microcrystals X50 14.1/X100 87 μm, 10 min, paddle 100 rpm): 90.2% | RELEASE in % ([1]; 1 mg capsule, microcrystals X50 14.1/X100 87 μm, 20 min, paddle 100 rpm): 95.3% | RELEASE in % ([1]; 1 mg capsule, microcrystals X50 14.1/X100 87 μm, 30 min, paddle 100 rpm): 96.0% | RELEASE in % ([1]; 1 mg capsule, microcrystals X50 14.1/X100 87 μm, 45 min, paddle 100 rpm): 96.3% | RELEASE in % ([1]; 1 mg tablet, microcrystals X50 10.6/X100 73 μm, 0 min, paddle, 100 rpm): 0% | RELEASE in % ([1]; 1 mg tablet, microcrystals X50 10.6/X100 73 μm, 10 min, paddle, 100 rpm): 73.7% | RELEASE in % ([1]; 1 mg tablet, microcrystals X50 10.6/X100 73 μm, 20 min, paddle, 100 rpm): 90.3% | RELEASE in % ([1]; 1 mg tablet, microcrystals X50 10.6/X100 73 μm, 30 min, paddle, 100 rpm): 91.85% | RELEASE in % ([1]; 1 mg tablet, microcrystals X50 10.6/X100 73 μm, 45 min, paddle, 100 rpm): 96.6% | CUT value spread: Confidence Interval % [2, 4]: 2.23% | CUT value spread: RSD, % [2, 4]: 3.56% | CUT value spread: Confidence Interval % [2, 5]: 1.20% | CUT value spread: RSD, % [2, 5]: 2.08% | CUT value spread: Confidence Interval % [2, 6]: 1.08% | CUT value spread: RSD, % [2, 6]: 1.57% | CUT value spread: Confidence Interval % [2, 7]: 0.93% | CUT value spread: RSD, % [2, 7]: 1.38% | CUT value spread: Confidence Interval % [2, 8]: 1.77% | CUT value spread: RSD, % [2, 8]: 2.50% | CUT value spread: Confidence Interval % [2, 9]: 1.16% | CUT value spread: RSD, % [2, 9]: 1.70% | Particle size X10 [3, 10]: 1.75 μm | Particle size X50 [3, 10]: 6.04 μm | Particle size X100 [3, 10]: 36 μm | Particle size X10 ([3]; Example 2, final): 4 μm | Particle size X50 ([3]; Example 2, final): 13 μm | Particle size X100 ([3]; Example 2, final): 73 μm | Particle size X10 [3, 11]: 3 μm | Particle size X50 [3, 11]: 9 μm | Particle size X100 [3, 11]: 61 μm | Particle size X10 ([3]; Example 3, final): 1.4 μm | Particle size X50 ([3]; Example 3, final): 5.4 μm | Particle size X100 ([3]; Example 3, final): 30 μm | Particle size X10 [3, 12]: 1.2 μm | Particle size X50 [3, 12]: 3.4 μm | Particle size X100 [3, 12]: 30 μm | average particle diameter (×50) ([3]; after dissolution and re-crystallization of 40 percent of the precipitate from 20 percent by weight ethyl acetate solution): 7.8 μm | Particle diameter X10 [3, 13]: 2.7 μm | Particle diameter X50 [3, 13]: 10.61 μm | Particle diameter X90 [3, 13]: 24 μm | Particle diameter X100 [3, 13]: 73 μm | Particle diameter X10 [3, 14]: 2.25 μm | Particle diameter X50 [3, 14]: 8.03 μm | Particle diameter X90 [3, 14]: 17 μm | Particle diameter X100 [3, 14]: 43 μm | increase of the maximum particle size (×100) ([3]; during dissolution and re-crystallization of 40 percent of the precipitate from 20 percent by weight ethyl acetate solution): scarcely measurable | average particle diameter (×50) ([3]; precipitated from a 20 percent by weight ethyl acetate solution, before dissolution and re-crystallization): 4.9 μm | Particle diameter X10 [3, 15]: 2.11 μm | Particle diameter X50 [3, 15]: 8.6 μm | Particle diameter X90 [3, 15]: 19 μm | Particle diameter X100 [3, 15]: 51 μm | Particle diameter X10 [3, 16]: 2.62*** μm | Particle diameter X50 [3, 16]: 10.4 μm | Particle diameter X90 [3, 16]: 24 μm | Particle diameter X100 [3, 16]: 73 μm

CCNC(=O)ON=Cc1ccc(C2CC3(C)C(CCC3(COC)OC)C3CCC4=CC(=O)CCC4=C23)cc1 (stereo not drawn) [Micronizate, 11β-{4-[(ethylaminocarbonyl)oximinomethyl]phenyl}-17β-methoxy-17α-methoxymethyl-estra-4,9-dien-3-one, reference compound]
RELEASE in % ([1]; 1 mg capsule, micronized J956, 0 min, paddle 100 rpm): 0% | RELEASE in % ([1]; 1 mg capsule, micronized J956, 10 min, paddle 100 rpm): 92.1% | RELEASE in % ([1]; 1 mg capsule, micronized J956, 20 min, paddle 100 rpm): 94.3% | RELEASE in % ([1]; 1 mg capsule, micronized J956, 30 min, paddle 100 rpm): 94.6% | RELEASE in % ([1]; 1 mg capsule, micronized J956, 45 min, paddle 100 rpm): 94.9% | RELEASE in % ([1]; 1 mg tablet, micronized J956, 0 min, paddle, 100 rpm): 0% | RELEASE in % ([1]; 1 mg tablet, micronized J956, 10 min, paddle, 100 rpm): 92.1% | RELEASE in % ([1]; 1 mg tablet, micronized J956, 20 min, paddle, 100 rpm): 94.3% | RELEASE in % ([1]; 1 mg tablet, micronized J956, 30 min, paddle, 100 rpm): 94.6% | RELEASE in % ([1]; 1 mg tablet, micronized J956, 45 min, paddle, 100 rpm): 94.9% | CUT value spread: Confidence Interval % ([2]; 1 mg capsule, micronized J956): 1.72% | CUT value spread: RSD, % ([2]; 1 mg capsule, micronized J956): 2.56% | CUT value spread: Confidence Interval % ([2]; 1 mg tablet, micronized J956): 1.72% | CUT value spread: RSD, % ([2]; 1 mg tablet, micronized J956): 2.56%

C[C@]1(O)CC[C@H]2[C@@H]3CCC4=CC(=O)CC[C@@H]4[C@H]3CC[C@@]21C [methylnortestosterone, reference compound]
Particle size X10 [3, 17]: 1.32 μm | Particle size X50 [3, 17]: 3.96 μm | Particle size X99 [3, 17]: 14 μm | Particle size X100 [3, 17]: 18 μm | Particle size X10 ([3]; Example 7, spray-dried): 1.36 μm | Particle size X50 ([3]; Example 7, spray-dried): 3.94 μm | Particle size X99 ([3]; Example 7, spray-dried): 14 μm | Particle size X100 ([3]; Example 7, spray-dried): 18 μm

C#C[C@]1(OC(C)=O)CC[C@H]2[C@@H]3CCC4=CC(=O)CC[C@@H]4[C@H]3CC[C@@]21C [norethisterone acetate, reference compound]
Particle size X10 ([3]; Example 6, end): 8.5 μm | Particle size X50 ([3]; Example 6, end): 30.4 μm | Particle size X99 ([3]; Example 6, end): 87 μm | Particle size X100 ([3]; Example 6, end): 100 μm | Particle size X10 [3, 18]: 4 μm | Particle size X50 [3, 18]: 14 μm | Particle size X99 [3, 18]: 55 μm | Particle size X100 [3, 18]: 87 μm

CCCCCCCCCCC(=O)O[C@H]1CC[C@H]2[C@@H]3CCC4=CC(=O)CC[C@]4(C)[C@H]3CC[C@]12C [testosterone undecanoate, reference compound]
Particle size X10 ([3]; Example 4, 1st cycle): 17 μm | Particle size X50 ([3]; Example 4, 1st cycle): 41 μm | Particle size X99 ([3]; Example 4, 1st cycle): 100 μm | Particle size X100 ([3]; Example 4, 1st cycle): 120 μm | Particle size X10 [3, 19]: 6 μm | Particle size X50 [3, 19]: 21 μm | Particle size X99 [3, 19]: 100 μm | Particle size X100 [3, 19]: 120 μm

Source: patent US20030215516A1, “Process for production of crystals of a medicinally effective ingredient, crystals obtained thereby and pharmaceutical preparations containing them” (priority 2002, published 2003)
